Results as given in publication PMC12307812 (Nature Communications, 2025).
Like-named read-outs stand apart in the source and are kept apart here.

What was measured:
Assay type in all cases: cell-based
[1] = test system: pseudovirus bearing VSV-G; experiment: organism not typed; settings: Calu-3; for inhibition at 0.00025 µM: concentration 0.25 nM; for inhibition at 0.0025 µM: concentration 2.5 nM; for inhibition at 0.025 µM: concentration 25 nM; for inhibition at 0.25 µM: concentration 250 nM; for inhibition at 2.5 µM: concentration 2500 nM; for inhibition at 25 µM: concentration 25000 nM
[2] = test system: pseudovirus bearing S protein of MERS-CoV; experiment: organism not typed; settings: for IC50: Calu-3, read-out: IC50 estimate, pseudovirus cell entry MERS-S; for inhibition at 0.00025 µM / inhibition at 0.0025 µM / inhibition at 0.025 µM / inhibition at 0.25 µM / inhibition at 2.5 µM / inhibition at 25 µM: Calu-3; for inhibition at 0.00025 µM: concentration 0.25 nM; for inhibition at 0.0025 µM: concentration 2.5 nM; for inhibition at 0.025 µM: concentration 25 nM; for inhibition at 0.25 µM: concentration 250 nM; for inhibition at 2.5 µM: concentration 2500 nM; for inhibition at 25 µM: concentration 25000 nM
[3] = test system: pseudovirus bearing S protein of SARS-CoV-2 lineage EG.5.1; experiment: organism not typed; settings: for inhibition at 0.00025 µM / inhibition at 0.0025 µM / inhibition at 0.025 µM / inhibition at 0.25 µM / inhibition at 2.5 µM / inhibition at 25 µM: Calu-3, EG.5.1; for inhibition at 0.00025 µM: concentration 0.25 nM; for inhibition at 0.0025 µM: concentration 2.5 nM; for inhibition at 0.025 µM: concentration 25 nM; for inhibition at 0.25 µM: concentration 250 nM; for inhibition at 2.5 µM: concentration 2500 nM; for inhibition at 25 µM: concentration 25000 nM
[4] = test system: pseudovirus bearing S protein of SARS-CoV-2 lineage B.1; experiment: organism not typed; settings: for inhibition at 0.00025 µM / inhibition at 0.0025 µM / inhibition at 0.025 µM / inhibition at 0.25 µM / inhibition at 2.5 µM / inhibition at 25 µM: Calu-3, B.1; for inhibition at 0.00025 µM: concentration 0.25 nM; for inhibition at 0.0025 µM: concentration 2.5 nM; for inhibition at 0.025 µM: concentration 25 nM; for inhibition at 0.25 µM: concentration 250 nM; for inhibition at 2.5 µM: concentration 2500 nM; for inhibition at 25 µM: concentration 25000 nM; for IC50: Calu-3 cells, read-out: IC50, pseudovirus cell entry B.1
[5] = test system: pseudovirus bearing S protein of SARS-CoV-1; experiment: organism not typed; settings: for IC50: Calu-3, read-out: IC50 estimate, pseudovirus cell entry SARS-1-S; for inhibition at 0.00025 µM / inhibition at 0.0025 µM / inhibition at 0.025 µM / inhibition at 0.25 µM / inhibition at 2.5 µM / inhibition at 25 µM: Calu-3; for inhibition at 0.00025 µM: concentration 0.25 nM; for inhibition at 0.0025 µM: concentration 2.5 nM; for inhibition at 0.025 µM: concentration 25 nM; for inhibition at 0.25 µM: concentration 250 nM; for inhibition at 2.5 µM: concentration 2500 nM; for inhibition at 25 µM: concentration 25000 nM
[6] = test system: vesicular stomatitis virus (VSV); settings: for mean log10(PFU/ml): VSV
[7] = test system: pseudovirus bearing S protein of SARS-CoV-2 lineage B.1.617.2; experiment: organism not typed; settings: for inhibition at 0.00025 µM / inhibition at 0.0025 µM / inhibition at 0.025 µM / inhibition at 0.25 µM / inhibition at 2.5 µM / inhibition at 25 µM: Calu-3, B.1.617.2; for inhibition at 0.00025 µM: concentration 0.25 nM; for inhibition at 0.0025 µM: concentration 2.5 nM; for inhibition at 0.025 µM: concentration 25 nM; for inhibition at 0.25 µM: concentration 250 nM; for inhibition at 2.5 µM: concentration 2500 nM; for inhibition at 25 µM: concentration 25000 nM; for IC50: Calu-3 cells, read-out: IC50, pseudovirus cell entry B.1.617.2
[8] = Calu-3 cells, Fig. 4g, read-out: IC50 estimate, pseudovirus cell entry EG.5.1
[9] = Calu-3 cells, read-out: IC50, EG.5.1-S protein-driven Calu-3 cell entry

Q: For `CC(C)(C)NC(=O)N1CCN(C(=O)N2C(=O)C(CCCNC(=N)N)C2C(=O)O)CC1` (stereo not drawn) [BMS-262084], which inhibition at 0.00025 µM [1] is on record?
A: 2.19%

Q: What about the inhibition at 0.0025 µM [1] of the same molecule?
A: 1.17%

Q: What about the inhibition at 0.025 µM [1] of the same molecule?
A: 1.08%

Q: And the inhibition at 0.25 µM [1]?
A: 0.456%

Q: And the inhibition at 2.5 µM [1]?
A: 0.565%

Q: What about the inhibition at 25 µM [1] of the same molecule?
A: -2.28%

Q: And the IC50 [2]?
A: 101 ± 24.2 nM

Q: What about the inhibition at 0.00025 µM [2] of the same molecule?
A: 0.787%

Q: What about the inhibition at 0.0025 µM [2] of the same molecule?
A: -4.71%

Q: What about the inhibition at 0.025 µM [2] of the same molecule?
A: 29.1%

Q: What about the inhibition at 0.25 µM [2] of the same molecule?
A: 67.2%

Q: And the inhibition at 2.5 µM [2]?
A: 89.3%

Q: And the inhibition at 25 µM [2]?
A: 93%

Q: What about the inhibition at 0.00025 µM [3] of the same molecule?
A: 10.3%

Q: And the inhibition at 0.0025 µM [3]?
A: 16.8%

Q: And the inhibition at 0.025 µM [3]?
A: 26.9%

Q: And the inhibition at 0.25 µM [3]?
A: 51.3%

Q: What about the inhibition at 2.5 µM [3] of the same molecule?
A: 58.1%

Q: And the inhibition at 25 µM [3]?
A: 57.8%

Q: And the “fold less efficient inhibition of EG.5.1-S entry compared to B.1-S, B.1.617.2-S or BA.2.86-S” value ([3]; Calu-3 cells)?
A: 20–50 fold

Q: What about the IC50 [3, 8] of the same molecule?
A: 1200 ± 763 nM

Q: And the IC50 [3, 9]?
A: 1200 nM

Q: What about the inhibition at 0.00025 µM [4] of the same molecule?
A: 7.25%

Q: And the inhibition at 0.0025 µM [4]?
A: 11.1%

Q: And the inhibition at 0.025 µM [4]?
A: 52.1%

Q: What about the inhibition at 0.25 µM [4] of the same molecule?
A: 86.2%

Q: What about the inhibition at 2.5 µM [4] of the same molecule?
A: 92.8%

Q: What about the inhibition at 25 µM [4] of the same molecule?
A: 93.3%

Q: And the IC50 [4]?
A: 24.5 nM

Q: And the IC50 [5]?
A: 82 ± 23.1 nM

Q: What about the inhibition at 0.00025 µM [5] of the same molecule?
A: 3.34%

Q: And the inhibition at 0.0025 µM [5]?
A: 5.92%

Q: What about the inhibition at 0.025 µM [5] of the same molecule?
A: 31.7%

Q: And the inhibition at 0.25 µM [5]?
A: 73.6%

Q: What about the inhibition at 2.5 µM [5] of the same molecule?
A: 80.6%

Q: What about the inhibition at 25 µM [5] of the same molecule?
A: 91.7%

Q: What about the “effect on VSV infection” value [6] of the same molecule?
A: not affected

Q: What about the “mean log10(PFU/ml)” value ([6]; concentration 5 nM) of the same molecule?
A: 9.0266 log10(PFU/ml)

Q: And the “mean log10(PFU/ml)” value ([6]; concentration 50 nM)?
A: 9.0323 log10(PFU/ml)

Q: What about the “mean log10(PFU/ml)” value ([6]; concentration 500 nM) of the same molecule?
A: 9.005 log10(PFU/ml)

Q: And the “mean log10(PFU/ml)” value ([6]; concentration 5000 nM)?
A: 9 log10(PFU/ml)

Q: And the “mean log10(PFU/ml)” value ([6]; concentration 50000 nM)?
A: 9.006 log10(PFU/ml)

Q: What about the inhibition at 0.00025 µM [7] of the same molecule?
A: -3.95%

Q: And the inhibition at 0.0025 µM [7]?
A: 6%

Q: And the inhibition at 0.025 µM [7]?
A: 32.3%

Q: What about the inhibition at 0.25 µM [7] of the same molecule?
A: 82.7%

Q: And the inhibition at 2.5 µM [7]?
A: 96.1%

Q: What about the inhibition at 25 µM [7] of the same molecule?
A: 96.1%

Q: And the IC50 [7]?
A: 52.5 nM

Q: Which inhibition at 0.00025 µM [1] does the source give for `CN(C)C(=O)COC(=O)Cc1ccc(OC(=O)c2ccc(NC(=N)N)cc2)cc1` [camostat] here?
A: 0.261%

Q: And the inhibition at 0.0025 µM [1]?
A: -1.2%

Q: And the inhibition at 0.025 µM [1]?
A: -0.393%

Q: And the inhibition at 0.25 µM [1]?
A: -0.191%

Q: And the inhibition at 2.5 µM [1]?
A: -0.407%

Q: What about the inhibition at 25 µM [1] of the same molecule?
A: -1.53%

Q: And the IC50 [2]?
A: 189 ± 12.3 nM

Q: And the inhibition at 0.00025 µM [2]?
A: 0.136%

Q: What about the inhibition at 0.0025 µM [2] of the same molecule?
A: 2.04%

Q: And the inhibition at 0.025 µM [2]?
A: 13.3%

Q: And the inhibition at 0.25 µM [2]?
A: 57.4%

Q: And the inhibition at 2.5 µM [2]?
A: 89.2%

Q: What about the inhibition at 25 µM [2] of the same molecule?
A: 95.7%

Q: And the inhibition at 0.00025 µM [3]?
A: 3.95%

Q: What about the inhibition at 0.0025 µM [3] of the same molecule?
A: -5.66%

Q: What about the inhibition at 0.025 µM [3] of the same molecule?
A: 19.1%

Q: And the inhibition at 0.25 µM [3]?
A: 34.3%

Q: What about the inhibition at 2.5 µM [3] of the same molecule?
A: 43.1%

Q: What about the inhibition at 25 µM [3] of the same molecule?
A: 52.7%

Q: What about the IC50 [3, 8] of the same molecule?
A: 8560 ± 6540 nM

Q: What about the IC50 [3, 9] of the same molecule?
A: 8560 nM

Q: What about the inhibition at 0.00025 µM [4] of the same molecule?
A: -1.94%

Q: And the inhibition at 0.0025 µM [4]?
A: 3.06%

Q: And the inhibition at 0.025 µM [4]?
A: 2.53%

Q: And the inhibition at 0.25 µM [4]?
A: 60.8%

Q: What about the inhibition at 2.5 µM [4] of the same molecule?
A: 89.4%

Q: And the inhibition at 25 µM [4]?
A: 96.6%

Q: And the IC50 [4]?
A: 190 nM

Q: And the IC50 [5]?
A: 193 ± 70.4 nM

Q: What about the inhibition at 0.00025 µM [5] of the same molecule?
A: 3.15%

Q: What about the inhibition at 0.0025 µM [5] of the same molecule?
A: 5.85%

Q: What about the inhibition at 0.025 µM [5] of the same molecule?
A: 19.9%

Q: And the inhibition at 0.25 µM [5]?
A: 63.5%

Q: And the inhibition at 2.5 µM [5]?
A: 76.2%

Q: What about the inhibition at 25 µM [5] of the same molecule?
A: 83.2%

Q: What about the “mean log10(PFU/ml)” value ([6]; concentration 5 nM) of the same molecule?
A: 9.003 log10(PFU/ml)

Q: And the “mean log10(PFU/ml)” value ([6]; concentration 50 nM)?
A: 8.994 log10(PFU/ml)

Q: What about the “mean log10(PFU/ml)” value ([6]; concentration 500 nM) of the same molecule?
A: 9.01 log10(PFU/ml)

Q: What about the “mean log10(PFU/ml)” value ([6]; concentration 5000 nM) of the same molecule?
A: 9.013 log10(PFU/ml)

Q: And the “mean log10(PFU/ml)” value ([6]; concentration 50000 nM)?
A: 8.989 log10(PFU/ml)

Q: What about the inhibition at 0.00025 µM [7] of the same molecule?
A: -0.882%

Q: What about the inhibition at 0.0025 µM [7] of the same molecule?
A: 3.07%

Q: And the inhibition at 0.025 µM [7]?
A: 10.5%

Q: And the inhibition at 0.25 µM [7]?
A: 57.9%

Q: And the inhibition at 2.5 µM [7]?
A: 90.4%

Q: What about the inhibition at 25 µM [7] of the same molecule?
A: 96.4%

Q: What about the IC50 [7] of the same molecule?
A: 191 nM
